# Assay results published in patent US8053013B2, “Flavour modulating substances” (Quest International Services B.V., priority 2004, dated 2011).
# Key:
# [1] = Tasting session by a panel of experienced flavourists: solution in tap water (Example 7); conditions: 0.1 wt % in tap water
# Method: For a tasting session by a panel of experienced flavourists a solution comprising 0.1 wt % of a flavour composition as prepared in example 4 in tap water was prepared.
# [2] = Panel evaluation of HIT Duck Flavour samples with and without N Lactoyl glucosamine (Example 8); conditions: Sample B: 0.006% N Lactoyl glucosamine with 0.6% NaCl, 0.03% MSG, 0.1% HIT Duck Flavour (Quest)
# Method: Two samples were prepared as follow and compared:
# Sample A: 0.6% of NaCl, 0.03% of MSG and 0.1% of HIT Duck Flavour (Quest)
# Sample B: 0.6% of NaCl, 0.03% of MSG, 0.1% of HIT Duck Flavour (Quest) and 0.006% N Lactoyl glucosamine as prepared in example 4.
# The samples were evaluated by a panel of experienced flavourists. There was general agreement about the difference in taste between the samples: […]
smiles,measurement,setting,value
"CC(O)C(=O)N[C@H]1C(O)O[C@H](CO)[C@@H](O)[C@@H]1O (some centres unmarked) [Example 4, N-Lactoyl-Glucosamine]",taste of the solution described by panellists,[1],"strong metallic, bloody, raw meat like"
same,"taste described by flavourists, compared with sample A without the substance",[2],"savoury duck flavour, with slightly metallic taste, and more meaty character, authenticity, and naturalness than sample A"
